Laboratory results from PMC8226722, “Comparison of Solution Chemical Properties and Biological Activity of Ruthenium Complexes of Selected β-Diketone, 8-Hydroxyquinoline and Pyrithione Ligands” (Pharmaceuticals, 2021).

Tests used:
[1] = tested on: MRC-5 normal human embryonal lung fibroblast cells; test: MTT cytotoxicity assay, MRC-5; format: cell-based; conditions: 72 h
Description: (§1) Human colonic adenocarcinoma cell lines Colo 205 doxorubicin-sensitive (ATCC-CCL-222) and Colo 320/MDR-LRP multidrug resistant expressing ABCB1 (MDR1)-LRP (ATCC-CCL-220.1) were purchased from LGC Promochem (Teddington, UK). […] Cell lines were incubated at 37 °C, in a 5% CO2, 95% air atmosphere. The semi-adherent human colon cancer cells were detached with Trypsin-Versene (EDTA, Sigma, Steinheim, Germany) solution for 5 min at 37 °C. MRC-5 human embryonal lung fibroblast cell lines (ATCC CCL-171) were purchased from LGC Promochem. […] The cell lines were incubated at 37 °C, in a 5% CO2, 95% air atmosphere.
(§2) In the study MRC-5 non-cancerous human embryonic lung fibroblast and human colonic adenocarcinoma cell lines (doxorubicin-sensitive Colo 205 and multidrug resistant Colo 320 colonic adenocarcinoma cells) were used to determine the effect of compounds on cell growth. The effects of increasing concentrations of compounds on cell growth were tested in 96-well flat-bottomed microtiter plates. The stock solutions of the compounds were prepared in DMSO, and in the final samples the DMSO content was always lower than 1%. The compounds were diluted in a volume of 100 μL of medium.
(§3) In case of the colonic adenocarcinoma cells, the two-fold serial dilutions of compounds were prepared in 100 μL of RPMI 1640, horizontally. The semi-adherent colonic adenocarcinoma cells were treated with Trypsin-Versene (EDTA) solution. They were adjusted to a density of 1 × 10^4 cells in 100 μL of RPMI 1640 medium, and were added to each well, with the exception of the medium control wells. The final volume of the wells containing compounds and cells was 200 μL.
(§4) The culture plates were incubated at 37 °C for 72 h; at the end of the incubation period, 20 μL of MTT (Sigma) solution (from a stock solution of 5 mg/mL) were added to each well. After incubation at 37 °C for 4 h, 100 μL of sodium dodecyl sulfate (SDS) (Sigma) solution (10% in 0.01 M HCl) were added to each well and the plates were further incubated at 37 °C overnight. Cell growth was determined by measuring the optical density (OD) at 540/630 nm with Multiscan EX ELISA reader (Thermo Labsystems, Cheshire, WA, USA). […] Curves were fitted by Prism software (GraphPad Software Inc., San Diego, CA, USA) using the sigmoidal dose-response model (comparing variable and fixed slopes). The IC50 values were obtained from at least 3 independent experiments.

[2] = tested on: Colo 205 chemo-sensitive human colonic adenocarcinoma cell line; test: MTT cytotoxicity assay, Colo 205; format: cell-based; conditions: for IC50: 72 h, MTT; for S.I. MRC-5/Colo 205: ratio of the indicated IC50 values
Description: as §1, §2, §3, §4

[3] = tested on: Escherichia coli K-12 AG100; test: MIC determination (CLSI broth microdilution); format: cell-based; conditions: Gram-negative, AG100, 18 h
Description: (§5) Wild-type Escherichia coli K-12 AG100 strain [argE3 thi-1 rpsL xyl mtl Δ(gal-uvrB) supE44] expressing the AcrAB TolC EP at its basal level and Klebsiella pneumoniae ATCC 49,619 Gram-negative strains were studied in the experiments. Staphylococcus aureus ATCC 43,300 methicillin-resistant (MRSA) strain and Enterococcus faecalis ATCC 29,212 strain were used as Gram-positive strains in the assays. MIC values of the complexes were determined in 96-well plates based on the Clinical and Laboratory Standard Institute guidelines (CLSI guidelines). The stock solutions of the compounds (dissolved in DMSO using 10 mM concentration) were diluted in 100 μL of Mueller Hinton Broth. Then 10^−4 dilution of an overnight bacterial culture in 100 μL of medium was added to each well, with the exception of the medium control wells.

[4] = tested on: Klebsiella pneumoniae ATCC 49619; test: MIC determination (CLSI broth microdilution); format: cell-based; conditions: Gram-negative, ATCC 49619, 18 h
Description: as §5

[5] = tested on: Enterococcus faecalis ATCC 29212; test: MIC determination (CLSI broth microdilution); format: cell-based; conditions: Gram-positive, ATCC 29212, 18 h
Description: as §5

[6] = tested on: Staphylococcus aureus ATCC 43300 methicillin-resistant (MRSA); test: MIC determination (CLSI broth microdilution); format: cell-based; conditions: Gram-positive, MRSA ATCC 43300, 18 h
Description: as §5

[7] = tested on: Colo 320 multidrug resistant human colonic adenocarcinoma cell line; test: MTT cytotoxicity assay, Colo 320; format: cell-based; conditions: for IC50: 72 h, MTT; for S.I. MRC-5/Colo 320: ratio of the indicated IC50 values
Description: as §1, §2, §3, §4

[8] = physchem
Description: The solution speciation studies of complexes 1–4 were performed using UV-vis spectrophotometry and pH-potentiometry in the presence of 200 mM chloride ions.
(§6) Titrations were performed in a carbonate-free KOH solution (0.20 M). The exact concentration of HCl and KOH solutions was determined by pH-potentiometric titrations.
(§7) The path length (l) was usually 1 cm, and 2, 5, 20 or 50 mm cells were used occasionally. Equilibrium constants (proton dissociation, stability constants, conditional stability constants (K’7.4) for the formation of mim adducts) and the individual spectra of the species were calculated with the computer program PSEQUAD [55]. The spectrophotometric titrations were performed in aqueous solution of the complexes at 25.0 ± 0.1 °C at an ionic strength of 0.20 M (KCl). Spectrum of the solution of 200 μM complex upon addition of one or two equivalents of its own ligand or phen was also measured at pH 7.4. UV-vis spectra recorded for the complexes as a function of chloride concentrations or PTA (in case of the chlorido complexes) were used to investigate the co-ligand exchange processes at pH 7.4. […] In some cases, the measurements were performed in the presence of 1–2% (Cl^−/PTA exchange reactions) or 6–8% (v/v) (interaction of mim with complexes 2, 4) DMSO.

[9] = tested on: Vero cells; test: MTT cytotoxicity in Vero cells (maximum non-toxic concentration); conditions: 24 h
Description: The antiviral effect of complexes against HSV-2 was screened using Vero cells (originally isolated from kidney epithelial cells) to host the growing viruses.
(§8) HeLa 229 cells (ATCC) and Vero cells (ATCC) were cultured in minimal essential medium (MEM) (Sigma, Steinheim, Germany) with Earle salts supplemented with 10% heat-inactivated fetal bovine serum (FBS) (Gibco; ThermoFisher Scientific, Inc., Waltham, MA, USA), 2 mM L-glutamine, 1× non-essential amino acids, 8 mM HEPES, 25 μg/mL gentamycin and 1 µg/mL fungisone. The cells were incubated for 1 h at room temperature to reduce the edge effect and then overnight at 37 °C, 5% CO2 to obtain a 90% confluent cell layer.
(§9) The density of cells was 4 × 10^4 cells/well in 100 µL of MEM with Earle salts supplemented with 10% heat-inactivated FBS, 2 mM L-glutamine, 1× MEM vitamins, 1× non-essential amino acids, 0.005% Na-pyruvate, 25 µg/mL gentamycin, 1 µg/mL fungisone). The plates were incubated for 1 h room temperature and then overnight at 37 °C, 5% CO2. Next day, when the cells reached a ~90% confluency, the medium was supplemented with the serial 2-fold dilutions of the complexes in three parallel wells for each concentration. […] After 24 h incubation for Vero cells and 48 h incubation for HeLa cells, 10 µL of the MTT (Sigma, Steinheim, Germany) labelling reagent (final concentration 0.5 mg/mL) was added to each well and the plate was incubated for 4 h at 37 °C, 5% CO2. After the incubation, 100 µL of the solubilisation solution (10% SDS in 1 M HCl) was added into each well, and the plate was allowed to stand overnight in the incubator at 37 °C, 5% CO2.

[10] = target: ABCB1 (P-glycoprotein) efflux pump (Homo sapiens, UniProt P08183); test: Rhodamine 123 uptake/retention fluorescence assay (flow cytometry) in Colo 320 cells
Description: It is important to note, that the resistance of this cell line is primarily mediated by the overexpression of the ABC-transporter P-glycoprotein, which pumps out xenobiotics from the cytosol. […] This dye is membrane-permeable and is rapidly taken up by the cells; therefore, it can be effectively used for the screening of efflux pump inhibiting compounds. […] Then the fluorescence accumulation ratios (FAR) were calculated (Figure 1) according to the equation given in the Materials and Methods section. Verapamil was used as a reference inhibitor compound.
This fluorescence-based detection system uses verapamil (a first-generation, competitive EPI) as reference inhibitor. […] The tested compounds were added at different concentrations (2 and 20 µM; from 1 and 10 mM stock solutions, respectively) and the samples were incubated for 10 min at room temperature.
The parameters evaluated from flow cytometric experiments are forward scatter count (FSC, provides information about cell size); side scatter count (SSC, proportional to cell granularity or internal complexity); mean fluorescence of the cells (FL-1) and the computed FAR and FAR quotients (Table S1).

[11] = Solution stability and speciation (UV-vis, 1H-NMR, pH-potentiometry); conditions: PBS’, pH 7.4, 2% DMSO, up to 24 h
Description: In order to confirm our prediction, time-dependent UV-visible (UV-vis) spectra were recorded for complexes 5–8 at pH 7.4 in aqueous solution (in modified phosphate buffered saline (PBS) buffer—PBS’) and in Eagle’s minimum essential medium (EMEM) used for the cytotoxicity studies in the presence of 2% (v/v) dimethyl sulfoxide (DMSO). […] Additionally, ^1H-NMR spectra were recorded for more water-soluble complexes 6–8.
In order to compare the stability of 1 and 3 at physiological pH, a serial dilution was made and UV-vis spectra were recorded in a wide concentration range (10 μM–3 mM) (Figure S10).
as §6, §7
^1H-NMR stability studies were carried out on a Bruker Avance III HD 500 MHz instrument. All ^1H-NMR spectra were recorded on samples containing 10% (v/v) D2O with the WATERGATE water suppression pulse scheme using DSS internal standard. Stability of complexes 6–8 was checked over time by ^1H-NMR spectroscopy at 500 μM in PBS’ or in EMEM (with 10% (v/v) DMSO-d6).

[12] = tested on: HeLa 229 human cervix carcinoma cells; test: MTT cytotoxicity in HeLa 229 cells (maximum non-toxic concentration); conditions: 48 h
Description: as §8, §9

Chain of ABCB1 (P-glycoprotein) efflux pump (P08183 whole entry): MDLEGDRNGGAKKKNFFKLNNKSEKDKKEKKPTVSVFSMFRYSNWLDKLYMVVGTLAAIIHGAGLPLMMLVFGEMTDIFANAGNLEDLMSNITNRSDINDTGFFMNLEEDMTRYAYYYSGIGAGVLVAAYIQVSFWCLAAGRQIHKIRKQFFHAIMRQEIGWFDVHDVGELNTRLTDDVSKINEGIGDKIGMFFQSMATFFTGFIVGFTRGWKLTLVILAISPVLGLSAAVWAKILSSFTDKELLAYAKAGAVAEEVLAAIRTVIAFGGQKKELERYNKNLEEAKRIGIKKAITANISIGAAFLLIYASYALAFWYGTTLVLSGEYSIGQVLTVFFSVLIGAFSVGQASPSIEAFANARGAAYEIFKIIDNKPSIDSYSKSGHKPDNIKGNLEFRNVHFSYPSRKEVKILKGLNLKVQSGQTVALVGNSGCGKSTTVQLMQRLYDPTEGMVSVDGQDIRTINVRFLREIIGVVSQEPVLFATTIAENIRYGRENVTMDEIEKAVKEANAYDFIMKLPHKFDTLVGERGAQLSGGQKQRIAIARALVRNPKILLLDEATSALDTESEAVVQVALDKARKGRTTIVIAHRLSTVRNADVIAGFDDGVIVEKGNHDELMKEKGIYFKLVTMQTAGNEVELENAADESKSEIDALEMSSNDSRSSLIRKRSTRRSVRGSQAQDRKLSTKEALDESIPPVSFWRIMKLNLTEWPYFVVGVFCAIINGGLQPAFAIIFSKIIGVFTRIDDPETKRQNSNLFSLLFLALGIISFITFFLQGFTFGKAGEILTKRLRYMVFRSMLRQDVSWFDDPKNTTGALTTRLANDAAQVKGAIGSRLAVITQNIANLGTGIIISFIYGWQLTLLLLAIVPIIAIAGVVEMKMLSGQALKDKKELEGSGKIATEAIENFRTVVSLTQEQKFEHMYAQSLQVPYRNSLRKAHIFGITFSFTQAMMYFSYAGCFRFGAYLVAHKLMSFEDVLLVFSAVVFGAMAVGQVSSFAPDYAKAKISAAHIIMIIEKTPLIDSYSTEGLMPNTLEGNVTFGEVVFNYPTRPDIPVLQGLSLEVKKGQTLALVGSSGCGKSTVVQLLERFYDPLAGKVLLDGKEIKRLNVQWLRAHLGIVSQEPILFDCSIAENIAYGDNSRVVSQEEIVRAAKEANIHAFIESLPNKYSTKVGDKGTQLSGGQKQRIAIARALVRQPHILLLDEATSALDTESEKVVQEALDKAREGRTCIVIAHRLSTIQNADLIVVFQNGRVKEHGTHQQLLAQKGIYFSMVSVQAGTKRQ

With `Cc1ccc(C(C)C)cc1.[Cl][Ru]([Cl])[PH]12CN3CN(CN(C3)C1)C2` [RAPTA-C, [Ru(η^6-p-cymene) (PTA)Cl2], reference compound] the IC50 [1] was greater than 100 µM, the IC50 [2] was greater than 100 µM and the “MIC E. coli” value [3] was greater than 100 µM. For the same molecule, the “MIC K. pneumoniae” value [4] was greater than 100 µM, the “MIC E. faecalis” value [5] was greater than 100 µM and the “MIC S. aureus” value [6] was greater than 100 µM. The IC50 [7] was greater than 100 µM.
For `N.N.[Cl][Pt][Cl]` [cisplatin, reference compound], the IC50 [1] was 0.88 ± 0.09 µM, the IC50 [2] was 29.8 ± 1.2 µM and the “S.I. MRC-5/Colo 205” value [2] was 0.03. The “MIC E. coli” value [3] was greater than 100 µM, the “MIC K. pneumoniae” value [4] was greater than 100 µM and the “MIC E. faecalis” value [5] was greater than 100 µM. For the same molecule, the “MIC S. aureus” value [6] was greater than 100 µM, the IC50 [7] was 5.58 ± 0.7 µM and the “S.I. MRC-5/Colo 320” value [7] was 0.16.
Molecule `On1ccc2ccccc2c1=S` [HHiQT, 2-hydroxyisoquinoline-1(2H)-thione] has a pKa [8] of 4.63 ± 0.08.
For `Cc1ccc(C(C)C)cc1.[Cl-].[O-]c1c(I)cc(Cl)c2cccnc12.[Ru+2]` [complex 5], the IC50 [1] was 2.95 ± 0.71 µM, the IC50 [2] was 21 ± 2.4 µM and the “S.I. MRC-5/Colo 205” value [2] was 0.14. The “concentrations at which maximum cytotoxicity was observed, Vero” value [9] was 12.5 to 100 µM, the “maximum non-toxic concentration, Vero” value [9] was 6.25 µM and the “MIC E. coli” value [3] was greater than 100 µM. The “MIC K. pneumoniae” value [4] was greater than 100 µM, the “MIC E. faecalis” value [5] was 12.5 µM and the “MIC S. aureus” value [6] was 25 µM. For the same molecule, the “FAR fluorescence accumulation ratio” value ([10]; Colo 320, 2 μM) was 6.19, the “FAR quotient (FAR related to that of 20 μM verapamil)” value ([10]; Colo 320, 2 μM) was 128.7% and the “FSC forward scatter count” value ([10]; Colo 320, 2 μM) was 1917. The “SSC side scatter count” value ([10]; Colo 320, 2 μM) was 840, the “FAR fluorescence accumulation ratio” value ([10]; Colo 320, 20 μM) was 3.66 and the “FAR quotient (FAR related to that of 20 μM verapamil)” value ([10]; Colo 320, 20 μM) was 76.0%. The “FSC forward scatter count” value ([10]; Colo 320, 20 μM) was 1950, the “SSC side scatter count” value ([10]; Colo 320, 20 μM) was 877 and the “FL-1 mean fluorescence of the cells” value ([10]; Colo 320, rhodamine 123, 2 μM) was 32.7. The “FL-1 mean fluorescence of the cells” value ([10]; Colo 320, rhodamine 123, 20 μM) was 19.3, the “FAR value” ([10]; Colo 320, tested at 2 μM and 20 μM) was “above 2” and the IC50 [7] was 13.7 ± 0.85 µM. For the same molecule, the “S.I. MRC-5/Colo 320” value [7] was 0.21, the “stability in PBS’ at pH 7.4, time-dependent UV-vis spectra” value [11] was “No characteristic UV-vis spectral changes within 24 h” and the “maximum non-toxic concentration, HeLa 229” value [12] was 25 µM.
